The target in one data set is EP2 receptor (Homo sapiens, UniProt P43116). Nature of the data set: Schild regression of PGE2-induced EP2 activation in C6G-EP2 cells. The format is cell-based. Also on record: expressed in transfected cells; host or cells: C6G-EP2 cells. The protocol: (§1) Information on the modality of antagonism can be obtained by performing Schild regression analysis characterized by: log (dr−1)=log XB−log KB. In the equation, dose ratio (dr)=fold shift in EC50, XB=[antagonist], KB=equilibrium dissociation constant for the antagonist-receptor complex. […] Thus, a lower KB value indicates a higher inhibitory potency.
To perform the Schild regression, C6G-EP2 cells were incubated first with vehicle, 0.01, 0.1 or 1 μM of test compound for 5 minutes, then with increasing concentrations of PGE2 to activate the EP2 receptor.

Another data set in a line: in vitro. The following applies: rat.
In the next data set the test system is C6G cells. Nature of the data set: CellTiter-Glo luminescent cell viability assay (cytotoxicity).
In the next data set the target is EP4 receptor (Homo sapiens, UniProt P35408). Kind of data set: Schild regression analysis for EP4 receptor. Type of data set: cell-based. The following applies: for Kb: read-out: KB (μM) EP4, from Schild regression analysis.
From the text: as §1

[1] abbreviates: C6G-EP2 cells, PGE2 as agonist, read-out: KB (nM) EP2, from Schild regression analysis.
Setting [2] is: additional compounds tables, read-out: EP2 KB.

Here are results for 33 compounds from patent publication US10040783B2 (Emory University, priority 2011, dated 2018).

Molecules are shown by their SMILES. Read-outs that look alike come from different tables or passages of the source.

Sequence of EP2 receptor (P43116 whole entry): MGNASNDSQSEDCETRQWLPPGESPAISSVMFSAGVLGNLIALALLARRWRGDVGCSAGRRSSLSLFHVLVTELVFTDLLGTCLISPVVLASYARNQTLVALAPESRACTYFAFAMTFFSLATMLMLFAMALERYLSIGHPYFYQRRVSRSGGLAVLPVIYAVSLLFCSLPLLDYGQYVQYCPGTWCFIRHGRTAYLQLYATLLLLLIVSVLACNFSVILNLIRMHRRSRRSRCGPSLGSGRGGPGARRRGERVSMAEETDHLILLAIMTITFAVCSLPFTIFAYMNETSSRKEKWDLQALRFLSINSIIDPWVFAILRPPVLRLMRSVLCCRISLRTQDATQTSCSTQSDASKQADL
Sequence of EP4 receptor (P35408 whole entry): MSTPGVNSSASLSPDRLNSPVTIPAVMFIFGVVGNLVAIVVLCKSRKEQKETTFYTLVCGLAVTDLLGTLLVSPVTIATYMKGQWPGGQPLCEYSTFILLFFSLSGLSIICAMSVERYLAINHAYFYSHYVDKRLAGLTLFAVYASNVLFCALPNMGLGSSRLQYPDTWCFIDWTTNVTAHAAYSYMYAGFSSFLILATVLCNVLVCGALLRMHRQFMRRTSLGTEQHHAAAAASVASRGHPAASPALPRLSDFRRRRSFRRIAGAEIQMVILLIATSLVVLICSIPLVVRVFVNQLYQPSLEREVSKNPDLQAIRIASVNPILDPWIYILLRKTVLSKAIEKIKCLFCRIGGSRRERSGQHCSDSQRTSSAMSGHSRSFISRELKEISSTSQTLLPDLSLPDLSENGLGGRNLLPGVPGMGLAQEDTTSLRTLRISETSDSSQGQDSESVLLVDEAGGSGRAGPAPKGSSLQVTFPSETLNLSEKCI

As to `COc1ccc(C=CC(=O)NCCn2c(C)cc3ccccc32)cc1` [1m, 3-(4-methoxyphenyl)-N-(2-(2-methyl-1H-indol-1-yl)ethyl)acrylamide], the Kb turned out to be 16.5 nM at EP2 receptor (setting [1]) and 8 µM at EP4 receptor. In addition, the CC50 at 48 h in “in vitro” (C6G cells) was 3090 µM. Besides, in the data set on C6G cells, the “Therapeutic index (in vitro), CC50/KB for EP2” value (“Therapeutic index (in vitro)” for short) was 187,000. Besides, the “Selective index, KB EP4/KB EP2” value on EP4 receptor came out at 484.
For the compound `Cc1cc2ccccc2n1CCNC(=O)c1ccc(C#N)cc1` [TG7-147], at EP2 receptor (setting [2]), the Kb is 139 nM.
For the compound `COc1cc(OC)c(C=CC(=O)NCCn2c(C)cc3ccccc32)cc1Br` [1y, 3-(5-bromo-2,4-dimethoxyphenyl)-N-(2-(2-methyl-1H-indol-1-yl)ethyl)acrylamide], the Kb on EP2 receptor (setting [1]) came out at 8 nM. In “in vitro” (C6G cells), this compound gave a CC50 at 48 h of 1240 µM. In the data set with C6G cells, the “Therapeutic index (in vitro)” value is on record as 155,000. Besides, on EP4 receptor, the “Selective index, KB EP4/KB EP2” value came to 859 and the Kb is 6.9 µM.
With `CC(=O)Nc1ccc(C(=O)NCCc2c(C)[nH]c3ccccc23)cc1` [TG7-146], the Kb on EP2 receptor (setting [2]) turned out to be 138 nM.
In turn, `COc1cc(CCC(=O)NCCn2c(C)cc3ccccc32)cc(OC)c1OC` [1l, N-(2-(2-methyl-1H-indol-1-yl)ethyl)-3-(3,4,5-trimethoxyphenyl)propanamide] showed a CC50 at 48 h in “in vitro” (C6G cells) of 397 µM. For the same compound, on EP4 receptor, the Kb turned out to be 18.1 µM.
For `Cc1cc2ccccc2n1CCNC(=O)c1ccc(N(C)C)cc1` [TG7-142, 4-(dimethylamino)-N-(2-(2-methyl-1H-indol-1-yl)ethyl)benzamide], the Kb at EP2 receptor (setting [2]) is 10.4 nM.
In the case of `Cc1cc2cc(F)ccc2n1CCNC(=O)C=Cc1ccc(F)c(F)c1` [1s, 3-(3,4-difluorophenyl)-N-(2-(5-fluoro-2-methyl-1H-indol-1-yl)ethyl)acrylamide], at EP2 receptor (setting [1]), the Kb amounted to 7 nM. This compound also yielded a CC50 at 48 h in the data set “in vitro” (C6G cells) of 684 µM. Further, in the data set with C6G cells, the “Therapeutic index (in vitro)” value is on record as 97,700. For the same compound, at EP4 receptor, the “Selective index, KB EP4/KB EP2” value is 1,990 and the Kb was 13.9 µM.
In the case of `Cc1cc2ccccc2n1CCNC(=O)C=Cc1ccc(CC(C)C)cc1` [1q, 3-(4-isobutylphenyl)-N-(2-(2-methyl-1H-indol-1-yl)ethyl)acrylamide], the Kb is 82.4 nM at EP2 receptor (setting [1]) and 30.2 µM at EP4 receptor. In addition, the CC50 at 48 h in “in vitro” (C6G cells) was found to be 199 µM. In addition, in the data set with C6G cells, the “Therapeutic index (in vitro)” value is 2,420. Further, at EP4 receptor, the “Selective index, KB EP4/KB EP2” value is listed as 367.
With `Cc1cc2ccccc2n1CCNC(=O)c1ccc(N)cc1` [TG7-143], the Kb at EP2 receptor (setting [2]) was 207 nM.
Same read-out and setting: to `Cc1cc2ccccc2n1CCNC(=O)c1ccc(N2CCN(C)CC2)c(F)c1` [TG7-141, 3-fluoro-N-(2-(2-methyl-1H-indol-1-yl)ethyl)-4-(4-methylpiperazin-1-yl)benzamide] belongs 51.1 nM.
With `COc1ccc(C=CC(=O)NCCn2c(C)cc3cc(F)ccc32)cc1OC` [1g, 3-(3,4-dimethoxyphenyl)-N-(2-(5-fluoro-2-methyl-1H-indol-1-yl)ethyl)acrylamide], the Kb on EP2 receptor (setting [1]) was 22.2 nM; on EP4 receptor, 1.7 µM. The CC50 at 48 h in “in vitro” (C6G cells) came to 264 µM. Further, the “Therapeutic index (in vitro)” value in the data set on C6G cells is given as 11,900. For the same compound, on EP4 receptor, the “Selective index, KB EP4/KB EP2” value came out at 77.
For the compound `Cc1cc2cc(F)ccc2n1CCNC(=O)C=Cc1cc(F)c(F)c(F)c1` [1u, N-(2-(5-fluoro-2-methyl-1H-indol-1-yl)ethyl)-3-(3,4,5-trifluorophenyl)acrylamide], the Kb on EP2 receptor (setting [1]) was found to be 27.8 nM; on EP4 receptor it was 19.9 µM. Further, the CC50 at 48 h in the data set “in vitro” (C6G cells) came out at 62 µM. For the same compound, the “Therapeutic index (in vitro)” value in the data set on C6G cells is 2,230. The “Selective index, KB EP4/KB EP2” value on EP4 receptor was found to be 715.
`CCOc1c(Br)cc(CCC(=O)NCCn2c(C)cc3ccccc32)cc1OC` [1v] registered a Schild plot slope on EP2 receptor (C6G-EP2 cells, PGE2) of 1.2. The Kb at EP2 receptor (setting [1]) stood at 1.8 nM. In addition, the “Modality of antagonism on EP2 receptor” value at EP2 receptor (Schild plots) is recorded as “competitive antagonism”.
For the compound `Cc1cc2ccccc2n1CCNC(=O)c1nc2cc(F)ccc2[nH]1` [TG7-118], the Kb on EP2 receptor (setting [2]) amounted to 128 nM.
As to `COc1ccc(C=CC(=O)NCCn2c(C)cc3cc(F)ccc32)cc1` [1n, N-(2-(5-fluoro-2-methyl-1H-indol-1-yl)ethyl)-3-(4-methoxyphenyl)acrylamide], at EP2 receptor (setting [1]), the Kb was 42.4 nM. Moreover, the CC50 at 48 h in the data set “in vitro” (C6G cells) was 653 µM. Further, the “Therapeutic index (in vitro)” value in the data set on C6G cells was 15,400. In addition, on EP4 receptor, the “Selective index, KB EP4/KB EP2” value came out at 277 and the Kb is 11.7 µM.
`COc1ccc(/C=C/C(=O)NCCn2c(C)cc3cc(F)ccc32)cc1Cl` [1x]: the Kb at EP2 receptor (setting [1]) was 6.3 nM. For the same compound, in the data set “in vitro” (C6G cells), the CC50 at 48 h came out at 601 µM. The “Therapeutic index (in vitro)” value with C6G cells is 95,400. Also, on EP4 receptor, the “Selective index, KB EP4/KB EP2” value was found to be 525 and the Kb worked out at 3.3 µM.
In the same order, the values of `Cc1nc2ccccc2n1CCNC(=O)C=Cc1ccc2c(c1)OCO2` [1c, 3-(benzo[d][1,3]dioxol-5-yl)-N-(2-(2-methyl-1H-benzo[d]imidazol-1-yl)ethyl)acrylamide] are 1490 nM, 325 µM, 219, 10 and 15.3 µM.
On to `COc1cc(C=CC(=O)NCCCn2c(C)cc3ccccc32)cc(OC)c1OC` [1j, N-(3-(2-methyl-1H-indol-1-yl)propyl)-3-(3,4,5-trimethoxyphenyl)acrylamide], for which, on EP2 receptor (setting [1]), the Kb was 1860 nM. The same compound displayed a CC50 at 48 h in the data set “in vitro” (C6G cells) of 182 µM. Further, the “Therapeutic index (in vitro)” value with C6G cells was determined as 98. At EP4 receptor, the “Selective index, KB EP4/KB EP2” value turned out to be 3 and the Kb was found to be 5.7 µM.
In the same order, the values of `Cc1cc2ccccc2n1CCNC(=O)C=Cc1ccc2c(c1)OCO2` [1o, 3-(benzo[d][1,3]dioxol-5-yl)-N-(2-(2-methyl-1H-indol-1-yl)ethyl)acrylamide] are 18.1 nM, 146 µM, 8,070, 629 and 11.4 µM.
In the case of `Cc1cc2ccccc2n1CCNC(=O)c1cnc2ccc(F)cc2c1O` [TG7-148], the Kb at EP2 receptor (setting [2]) was 174 nM.
`COc1cccc2c1C(=O)c1c(O)c3c(c(O)c1C2=O)C[C@@](O)(C(=O)CO)C[C@@H]3O[C@H]1C[C@H](N)[C@H](O)[C@H](C)O1` [doxorubicin, reference compound] registered a CC50 at 48 h in “in vitro” of 0.2 µM.
For the compound `COc1cc(C=CC(=O)NCCn2cnc3ccccc32)cc(OC)c1OC` [1d, N-(2-(1H-benzo[d]imidazol-1-yl)ethyl)-3-(3,4,5-trimethoxyphenyl)acrylamide], the Kb at EP2 receptor (setting [1]) turned out to be 2520 nM; at EP4 receptor, 13.9 µM. In “in vitro” (C6G cells), this compound had a CC50 at 48 h of 311 µM. Moreover, in the data set with C6G cells, the “Therapeutic index (in vitro)” value is 123. Further, the “Selective index, KB EP4/KB EP2” value on EP4 receptor was determined as 6.
As for `COc1ccc(C=CC(=O)NCCn2c(C)nc3ccccc32)cc1OC` [1b, 3-(3,4-dimethoxyphenyl)-N-(2-(2-methyl-1H-benzo[d]imidazol-1-yl)ethyl)acrylamide], the Kb on EP2 receptor (setting [1]) was 947 nM. Moreover, the CC50 at 48 h in the data set “in vitro” (C6G cells) was 448 µM. For the same compound, the “Therapeutic index (in vitro)” value in the data set on C6G cells turned out to be 473. Besides, at EP4 receptor, the “Selective index, KB EP4/KB EP2” value amounted to 14 and the Kb came to 13.3 µM.
Take `COc1cc(C(=O)NCCn2c(C)cc3ccccc32)cc(OC)c1OC` [TG7-112-1]: the Kb on EP2 receptor (setting [2]) was > 1000 nM.
Regarding `COc1cc(C=CC(=O)NCCn2c(C)nc3ccccc32)cc(OC)c1OC` [1a, N-(2-(2-methyl-1H-benzo[d]imidazol-1-yl)ethyl)-3-(3,4,5-trimethoxyphenyl)acrylamide], the Kb on EP2 receptor (setting [1]) came out at 348 nM. In “in vitro” (C6G cells), this compound displayed a CC50 at 48 h of 360 µM. The “Therapeutic index (in vitro)” value in the data set on C6G cells is on record as 1,030. For the same compound, on EP4 receptor, the “Selective index, KB EP4/KB EP2” value is listed as 39 and the Kb came out at 13.7 µM.
Regarding `Cc1cc(/C=C/C(=O)NCCn2c(C(F)(F)F)cc3ccccc32)cc(C)c1F` [TG7-13], the Kb at EP2 receptor (setting [2]) turned out to be 288 nM.
In the case of `Cc1cc2ccccc2n1CCNC(=O)C1CCC(=O)N1` (centres unmarked) [TG7-120], the Kb at EP2 receptor (setting [2]) is > 1000 nM.
`COc1cc(C=CC(=O)N(C)CCn2c(C)cc3ccccc32)cc(OC)c1OC` [1k, N-methyl-N-(2-(2-methyl-1H-indol-1-yl)ethyl)-3-(3,4,5-trimethoxyphenyl)acrylamide]: the Kb on EP2 receptor (setting [1]) turned out to be 185 nM. In “in vitro” (C6G cells), this compound returned a CC50 at 48 h of 278 µM. Moreover, the “Therapeutic index (in vitro)” value in the data set on C6G cells is recorded as 1,500. Also, on EP4 receptor, the “Selective index, KB EP4/KB EP2” value was determined as 90 and the Kb was 16.6 µM.
As to `Cc1cc2ccccc2n1CCNC(=O)c1c[nH]c2c(F)cccc2c1=O` [TG7-131], on EP2 receptor (setting [2]), the Kb turned out to be 630 nM.
As to `Cc1cc2ccccc2n1CCNC(=O)C=Cc1ccc(F)c(F)c1` [1r, 3-(3,4-difluorophenyl)-N-(2-(2-methyl-1H-indol-1-yl)ethyl)acrylamide], the Kb on EP2 receptor (setting [1]) turned out to be 3.8 nM. Besides, in the data set “in vitro” (C6G cells), the CC50 at 48 h is 89 µM. Further, the “Therapeutic index (in vitro)” value in the data set with C6G cells is 23,400. Moreover, on EP4 receptor, the “Selective index, KB EP4/KB EP2” value was 2,800 and the Kb came out at 10.6 µM.
Regarding `COc1ccc(/C=C/C(=O)NCCn2c(C(F)(F)F)cc3ccccc32)cc1OC` [1i], the Kb on EP2 receptor (setting [1]) is 58.8 nM. The “Therapeutic index (in vitro)” value with C6G cells is 3,550. In the data set on C6G cells (read-out: CC50, half maximal cytotoxic concentration, C6G cells after 48 h incubation), the CC50 was 209 µM. Further, at EP4 receptor, the “Selective index, KB EP4/KB EP2” value was 381 and the Kb came to 22.4 µM.
For `COc1cc(/C=C/C(=O)NCCc2c(C)oc3ccccc23)cc(OC)c1OC` [TG7-122], the Kb at EP2 receptor (setting [2]) came out at 217 nM.
Regarding `Cc1cc2ccccc2n1CCNC(=O)c1ccc(C(N)=O)cc1` [TG7-140], the Kb on EP2 receptor (setting [2]) was 150 nM.
